Test results reported in patent US20040033941A1, “Immunosuppression using piceatannol and a calcineurin inhibitor” (priority 2003, published 2004).
Entries after “also recorded” stand apart in the source; their conditions may differ.

Legend:
[1] = tested on: kidneys from ACI rats transplanted into Lewis rats; type: in vivo
Procedure: (§1) In vivo studies were conducted using piceatannol obtained from Peninsula Lab. […] We examined the ability of piceatannol/calcineurin mixtures to prolong graft survival. Donor organs from ACI rats were transplanted into Lewis rats.
In other experiments, kidneys from ACI rats were transplanted into Lewis rats. Drug administration continued for an additional seven days after transplant at the same levels. From day 8 through day 60 post-transplant administration continued, albeit with piceatannol reduced to 10 mg/kg/day. Thereafter, drug administration ceased.
Animals were anesthetized. The lower abdomen of the donor was shaved and surgically prepared and a long midline incision was made in the abdominal wall. The left kidney and left ureter, aorta, and vena cava were dissected, and suprarenal and gonadal veins ligated and cut. After ligating the suprarenal aorta and vena cava, a hole made in distal aorta and left kidney was flushed in situ with 3 ml of heparinized cold Euro-Collins' solution. The left kidney and left ureter were removed with an aortic cuff and vena cava patched and kept on ice.
After the lower abdomen of the recipient was shaved and surgically prepared, the recipient animal underwent a left nephrectomy via a long midline incision under inhalation anesthesia, and abdominal aoerta and vena cava were prepared for anastomosis. […]

[2] = tested on: hearts from ACI rats transplanted into Lewis rats; test: Heterotopic heart transplant, graft survival; type: in vivo, rat; settings: at the specified dosages (30 mg/kg piceatannol, 2 mg/kg cyclosporin A)
Procedure: as §1
Prior to transplantation, piceatannol (30 mg/kg) was administered intravenously for three days into one selection of Lewis rats via a catheter placed in the right jugular vein.
At day 3, hearts from ACI rats were heterotopically transplanted into the abdomen of the Lewis rats. […] Following transplantation, fascia and muscle were closed with absorbable suture and skin was closed with nylon.
After surgery animals were placed on a warm pad and observed until they awakened. The animals were then placed in cages in a warm environment with wood chip bedding, and provided rodent chow. To relieve pain, Buprenorphine was also given to the animal. Toxicity in animals was monitored by measuring the blood levels of creatinine and ALT, indicators of kidney and liver function, respectively. Drug administration then continued for an additional seven days after the transplant surgery (and was then discontinued).
In the case of heart transplants, rejection was considered complete when no heart beat was palpable with respect to the transplanted organ. This was confirmed by laparotomy and direct inspection.

[3] = tested on: transplanted organ; test: In vivo use of piceatannol alone as an immunosuppressive
[4] = tested on: T and B cell activation; test: T and B cell activation; type: cell-based; settings: both in vitro and in vivo
[5] = tested on: Syk kinase; settings: J. Oliver et al., J. Biol. Chem. 1994; mast cell/allergy studies; cited from earlier work

SMILES: Oc1cc(O)cc(/C=C/c2ccc(O)c(O)c2)c1 [piceatannol, 3,4,3′,5′-tetrahydroxy-trans-stilbene]
- prolonging kidney allograft survival (in words) ([1]; piceatannol 30 then 10 mg/kg/day IV, CsA 2 mg/kg/day IM, day -3 to +60, rejection = serum creatinine over 2 mg/dl or death): not effective
- histological analysis of transplanted kidneys ([1]; single-agent groups, data not shown): signs of acute rejection
- prolongation of heart graft survival (in words) [2]: only minimal prolongation effect
- tolerability / toxicity of piceatannol alone ([3]; 75 mg/kg of body weight per day): not well tolerated; also recorded: some toxicity was noted
- transplanted organ survival, piceatannol alone ([3]; in vivo use of piceatannol): prolongs transplanted organ survival
- T and B cell activation [4]: inhibits
- inhibition of Syk kinase [5]: very effective inhibitor
